Assay results reported in ChEMBL document CHEMBL4130376, “Discovery of methylsulfonyl indazoles as potent and orally active respiratory syncytial Virus(RSV) fusion inhibitors” (Eur J Med Chem, 2017).

Key:
[1] = Half life in rat at 2 mg/kg, iv; format: ADME, organism-based; settings: in vivo
[2] = Plasma clearance in rat at 2 mg/kg, iv; format: ADME, organism-based
[3] = Cmax in rat at 10 mg/kg, po; format: ADME, organism-based; parameters: dose 10 mg/kg, route oral; settings: in vivo
[4] = AUC (0 to 24 hrs) in rat at 10 mg/kg, po; format: ADME, organism-based; parameters: time < 24 hr, dose 10 mg/kg, route oral; settings: in vivo
[5] = Oral bioavailability in rat at 10 mg/kg; format: ADME, organism-based; settings: in vivo
[6] = Effective permeability of the compound by PAMPA; format: ADME; settings: read-out: Peff
[7] = Metabolic stability in mouse liver microsomes by high-throughput screening based assay; format: ADME, microsome; settings: read-out: Stability
[8] = Half life in rat at 10 mg/kg, po; format: ADME, organism-based; settings: in vivo
[9] = Volume of distribution at steady state in rat at 2 mg/kg, iv; format: ADME, organism-based; settings: in vivo, read-out: Vdss
[10] = Cmax in rat at 2 mg/kg, iv; format: ADME, organism-based; parameters: dose 2 mg/kg, route intravenous; settings: in vivo
[11] = Metabolic stability in human liver microsomes by high-throughput screening based assay; format: ADME, microsome; settings: read-out: Stability
[12] = AUC (0 to 24 hrs) in rat at 2 mg/kg, iv; format: ADME, organism-based; parameters: dose 2 mg/kg, time < 24 hr, route intravenous; settings: in vivo
[13] = Tmax in rat at 10 mg/kg, po; format: ADME, organism-based; settings: in vivo
[14] = AUC (0 to 24 hrs) in rat at 5 mg/kg, po; format: ADME, organism-based; parameters: dose 5 mg/kg, time < 24 hr, route oral; settings: in vivo
[15] = Oral bioavailability in rat at 5 mg/kg; format: ADME, organism-based; settings: in vivo
[16] = Tmax in rat at 5 mg/kg, po; format: ADME, organism-based; settings: in vivo
[17] = Half life in rat at 1 mg/kg, iv; format: ADME, organism-based; settings: in vivo
[18] = Volume of distribution at steady state in rat at 1 mg/kg, iv; format: ADME, organism-based; settings: in vivo, read-out: Vdss
[19] = Cmax in rat at 1 mg/kg, iv; format: ADME, organism-based; parameters: dose 1 mg/kg, route intravenous; settings: in vivo
[20] = Metabolic stability in rat liver microsomes by high-throughput screening based assay; format: ADME, microsome; settings: read-out: Stability
[21] = Cmax in rat at 5 mg/kg, po; format: ADME, organism-based; parameters: dose 5 mg/kg, route oral; settings: in vivo
Rattus norvegicus = test: AUC (0 to 24 hrs) in rat at 1 mg/kg, iv; format: ADME, organism-based; parameters: dose 1 mg/kg, time < 24 hr, route intravenous; settings: in vivo
Mus musculus [22] = test: Oral bioavailability in ICR mouse at 25 mg/kg; format: ADME, organism-based; settings: in vivo
[23] = Cmax in ICR mouse at 25 mg/kg, po; format: ADME, organism-based; parameters: dose 25 mg/kg, route oral; settings: in vivo
[24] = Volume of distribution at steady state in ICR mouse at 2 mg/kg, iv; format: ADME, organism-based; settings: in vivo, read-out: Vdss
[25] = Cmax in ICR mouse at 2 mg/kg, iv; format: ADME, organism-based; parameters: dose 2 mg/kg, route intravenous; settings: in vivo
[26] = Half life in ICR mouse at 25 mg/kg, po; format: ADME, organism-based; settings: in vivo
[27] = Half life in ICR mouse at 2 mg/kg, iv; format: ADME, organism-based; settings: in vivo
Mus musculus [28] = test: (§1) AUC (0 to 24 hrs) in ICR mouse at 2 mg/kg, iv; format: ADME, organism-based; parameters: time < 24 hr, dose 2 mg/kg, route intravenous; settings: in vivo, 24 h
Mus musculus [29] = test: AUC (0 to 24 hrs) in ICR mouse at 25 mg/kg, po; format: ADME, organism-based; parameters: dose 25 mg/kg, time < 24 hr, route oral; settings: in vivo
[30] = Tmax in ICR mouse at 25 mg/kg, po; format: ADME, organism-based; settings: in vivo
[31] = Tmax in ICR mouse at 12.5 mg/kg, po; format: ADME, organism-based; settings: in vivo
[32] = Cmax in ICR mouse at 12.5 mg/kg, po; format: ADME, organism-based; parameters: dose 12.5 mg/kg, route oral; settings: in vivo
[33] = Oral bioavailability in ICR mouse at 12.5 mg/kg; format: ADME, organism-based; settings: in vivo
[34] = AUC (0 to 24 hrs) in ICR mouse at 12.5 mg/kg, po; format: ADME, organism-based; parameters: time < 24 hr, dose 12.5 mg/kg, route oral; settings: in vivo
[35] = as §1; format: ADME, organism-based; parameters: time < 24 hr, dose 2 mg/kg, route intravenous; settings: ICR, in vivo
[36] = Plasma clearance in ICR mouse at 2 mg/kg, iv; format: ADME, organism-based
[37] = Half life in ICR mouse at 12.5 mg/kg, po; format: ADME, organism-based; settings: in vivo
[38] = Tmax in ICR mouse at […], po; format: ADME, organism-based; settings: in vivo
[39] = Cmax in ICR mouse at […], po; format: ADME, organism-based; parameters: dose 8.3 mg/kg, route oral; settings: in vivo
Mus musculus [40] = test: Oral bioavailability in ICR mouse at […]; format: ADME, organism-based; settings: in vivo
Mus musculus [41] = test: AUC (0 to 24 hrs) in ICR mouse at […], po; format: ADME, organism-based; parameters: time < 24 hr, dose 8.3 mg/kg, route oral; settings: in vivo
[42] = Half life in ICR mouse at […], po; format: ADME, organism-based; settings: in vivo

SMILES: CS(=O)(=O)CCCn1c(Cn2nc(S(C)(=O)=O)c3ccccc32)nc2cc(Cl)ccc21
- half-life [1]: 3.91 h
- clearance [2]: 17.4 mL/min/kg
- Cmax [3]: 22.2 ng/mL
- AUC(0-t) at 24 h [4]: 204 ng·h/mL
- bioavailability [5]: 1.7%
- Papp [6]: 2.78 ×10⁻⁶ cm/s
- CLhep predicted [7]: 14.9 mL/min/kg
- half-life [8]: 3.66 h
- Vd [9]: 2.5 L/kg
- Cmax [10]: 1160 ng/mL
- CLhep predicted [11]: 3.42 mL/min/kg
- AUC(0-t) at 24 h [12]: 2470 ng·h/mL
- Tmax [13]: 2.67 h

SMILES: CS(=O)(=O)CCCn1c(Cn2cc(S(C)(=O)=O)c3ccccc32)nc2cc(Cl)ccc21
- AUC(0-t) at 24 h [14]: 21.4 ng·h/mL
- bioavailability [15]: 1.46%
- Papp [6]: 1.55 to 2.36 ×10⁻⁶ cm/s
- CLhep predicted [7]: 34 mL/min/kg
- Tmax [16]: 4.67 h
- half-life [17]: 0.674 h
- Vd [18]: 2.71 L/kg
- Cmax [19]: 371 ng/mL
- CLhep predicted [11]: 0.66 mL/min/kg
- CLhep predicted [20]: 1.33 mL/min/kg
- Cmax [21]: 4.05 ng/mL
- AUC (Rattus norvegicus): 294 ng·h/mL

SMILES: CS(=O)(=O)c1nn(Cc2nc3cc(Cl)ccc3n2CCCCO)c2cnccc12
- F (Mus musculus [22]): 19%
- Cmax [23]: 425 ng/mL
- Papp [6]: 2.42 ×10⁻⁶ cm/s
- Vd [24]: 1.08 L/kg
- Cmax [25]: 1420 ng/mL
- CLhep predicted [7]: 25.5 mL/min/kg
- half-life [26]: 1.81 h
- half-life [27]: 0.297 h
- AUC (Mus musculus [28]): 1380 ng·h/mL
- CLhep predicted [11]: 2.58 mL/min/kg
- CLhep predicted [20]: 20.7 mL/min/kg
- AUC (Mus musculus [29]): 580 ng·h/mL
- Tmax [30]: 0.25 h

SMILES: CS(=O)(=O)c1nn(Cc2nc3cc(Cl)ccc3n2CCCO)c2cnccc12
- Tmax [31]: 0.5 h
- Papp [6]: 3.47 ×10⁻⁶ cm/s
- Vd [24]: 8.3 L/kg
- Cmax [25]: 1730 ng/mL
- Cmax [32]: 155 ng/mL
- CLhep predicted [7]: 15.3 mL/min/kg
- bioavailability [33]: 17.1%
- AUC(0-t) at 24 h [34]: 891 ng·h/mL
- half-life [27]: 4.05 h
- AUC(0-t) at 24 h [35]: 954 ng·h/mL
- clearance [36]: 37.4 mL/min/kg
- CLhep predicted [11]: 2.96 mL/min/kg
- CLhep predicted [20]: 14.9 mL/min/kg
- half-life [37]: 6.6 h

SMILES: CS(=O)(=O)CCn1c(Cc2cn(S(C)(=O)=O)c3ccccc23)nc2ccccc21
- CLhep predicted [7]: 73.2 mL/min/kg
- CLhep predicted [11]: 16.5 mL/min/kg

SMILES: CS(=O)(=O)CCc1c(CN2C(=O)C3(CC3)c3ccncc32)nc2cc(Cl)ccn12
- CLhep predicted [7]: 63.5 mL/min/kg
- CLhep predicted [11]: 2.6 mL/min/kg

SMILES: CS(=O)(=O)c1nn(Cc2nc3cc(Cl)ccc3n2CCC(F)(F)F)c2cnccc12
- Tmax [38]: 1 h
- Papp [6]: 2.81 ×10⁻⁶ cm/s
- Vd [24]: 1.04 L/kg
- Cmax [25]: 1940 ng/mL
- CLhep predicted [7]: 18 mL/min/kg
- Cmax [39]: 589 ng/mL
- F (Mus musculus [40]): 42.8%
- AUC (Mus musculus [41]): 2730 ng·h/mL
- half-life [27]: 1.03 h
- AUC (Mus musculus [28]): 4830 ng·h/mL
- half-life [42]: 3.16 h
- clearance [36]: 12.2 mL/min/kg
- CLhep predicted [11]: 1.09 mL/min/kg
- CLhep predicted [20]: 0.28 mL/min/kg

SMILES: CS(=O)(=O)CCn1c(Cn2cc(S(C)(=O)=O)c3ccccc32)nc2cc(Cl)ccc21
- Papp [6]: 2.3 ×10⁻⁶ cm/s

SMILES: CS(=O)(=O)c1nn(Cc2nc3cc(Cl)ccc3n2CCC(O)C(F)(F)F)c2cnccc12 (stereo not given)
- Papp [6]: 4.29 ×10⁻⁶ cm/s
- CLhep predicted [7]: 26.5 mL/min/kg
- CLhep predicted [11]: 4.51 mL/min/kg
- CLhep predicted [20]: 18 mL/min/kg
